Reference: the NIST ThermoML archive (doi:10.1016/j.jct.2010.12.027)
± gives the expanded uncertainty stated by the source.

Assays:
[1] = 298.15 K, 101 kPa, Liquid; for viscosity: Capillary tube (Ostwald / Ubbelohde) method; for mass density: Vibrating tube method
[2] = xn = mol fraction of the nth substance listed; details: 298.15 K, 101 kPa, Liquid; for viscosity: Capillary tube (Ostwald / Ubbelohde) method; for mass density: Vibrating tube method

SMILES: CCCCN [1-butanamine]
- viscosity [1]: 0.476 ± 0.01 mPa·s
- mass density [1]: 732.88 ± 0.26 kg/m3

SMILES: CCCCN [1-butanamine] + CCCCCCn1cc[n+](C)c1.F[B-](F)(F)F
- viscosity ([2]; x2 = 0): 0.476 ± 0.01 mPa·s
- viscosity ([2]; x2 = 0.0492): 0.889 ± 0.021 mPa·s
- viscosity ([2]; x2 = 0.0994): 1.433 ± 0.034 mPa·s
- viscosity ([2]; x2 = 0.1997): 3.137 ± 0.072 mPa·s
- viscosity ([2]; x2 = 0.3002): 6.183 ± 0.14 mPa·s
- viscosity ([2]; x2 = 0.3525): 8.532 ± 0.19 mPa·s
- viscosity ([2]; x2 = 0.4013): 11.16 ± 0.26 mPa·s
- viscosity ([2]; x2 = 0.4492): 14.68 ± 0.34 mPa·s
- viscosity ([2]; x2 = 0.5037): 19.56 ± 0.46 mPa·s
- viscosity ([2]; x2 = 0.5524): 25.39 ± 0.6 mPa·s
- viscosity ([2]; x2 = 0.6009): 32.05 ± 0.77 mPa·s
- viscosity ([2]; x2 = 0.7036): 53.63 ± 1.3 mPa·s
- viscosity ([2]; x2 = 0.7873): 76.62 ± 2 mPa·s
- viscosity ([2]; x2 = 0.8787): 117.48 ± 3.6 mPa·s
- mass density ([2]; x2 = 0): 732.88 ± 0.26 kg/m3
- mass density ([2]; x2 = 0.0492): 778.02 ± 0.81 kg/m3
- mass density ([2]; x2 = 0.0994): 809.01 ± 0.79 kg/m3
- mass density ([2]; x2 = 0.1997): 888.25 ± 0.74 kg/m3
- mass density ([2]; x2 = 0.3002): 943.91 ± 0.65 kg/m3
- mass density ([2]; x2 = 0.3525): 968.66 ± 0.6 kg/m3
- mass density ([2]; x2 = 0.4013): 989.49 ± 0.6 kg/m3
- mass density ([2]; x2 = 0.4492): 1008.25 ± 0.6 kg/m3
- mass density ([2]; x2 = 0.5037): 1027.64 ± 0.63 kg/m3
- mass density ([2]; x2 = 0.5524): 1043.6 ± 0.67 kg/m3
- mass density ([2]; x2 = 0.6009): 1058.22 ± 0.7 kg/m3
- mass density ([2]; x2 = 0.7036): 1085.8 ± 0.8 kg/m3
- mass density ([2]; x2 = 0.7873): 1105.23 ± 0.89 kg/m3
- mass density ([2]; x2 = 0.8787): 1124.35 ± 1 kg/m3

SMILES: CCCCCCn1cc[n+](C)c1.F[B-](F)(F)F [1-hexyl-3-methylimidazolium tetrafluoroborate]
- viscosity [1]: 195.37 ± 7.2 mPa·s
- mass density [1]: 1146.7 ± 1.2 kg/m3

SMILES: CCCCCCn1cc[n+](C)c1.F[B-](F)(F)F [1-hexyl-3-methylimidazolium tetrafluoroborate] + C1CCOC1
- viscosity ([2]; x1 = 0.0498): 0.891 ± 0.022 mPa·s
- viscosity ([2]; x1 = 0.1008): 1.564 ± 0.038 mPa·s
- viscosity ([2]; x1 = 0.203): 3.869 ± 0.088 mPa·s
- viscosity ([2]; x1 = 0.2976): 7.658 ± 0.17 mPa·s
- viscosity ([2]; x1 = 0.3461): 10.44 ± 0.23 mPa·s
- viscosity ([2]; x1 = 0.3965): 13.93 ± 0.31 mPa·s
- viscosity ([2]; x1 = 0.4457): 18.37 ± 0.42 mPa·s
- viscosity ([2]; x1 = 0.5003): 24.9 ± 0.58 mPa·s
- viscosity ([2]; x1 = 0.5548): 33.17 ± 0.78 mPa·s
- viscosity ([2]; x1 = 0.6083): 42.68 ± 1 mPa·s
- viscosity ([2]; x1 = 0.7025): 65.77 ± 1.7 mPa·s
- viscosity ([2]; x1 = 0.7992): 97.79 ± 2.8 mPa·s
- viscosity ([2]; x1 = 0.8925): 141.64 ± 4.6 mPa·s
- viscosity ([2]; x1 = 1): 195.37 ± 7.2 mPa·s
- mass density ([2]; x1 = 0.0498): 922.89 ± 0.76 kg/m3
- mass density ([2]; x1 = 0.1008): 956.61 ± 0.57 kg/m3
- mass density ([2]; x1 = 0.203): 1007.44 ± 0.48 kg/m3
- mass density ([2]; x1 = 0.2976): 1041.06 ± 0.43 kg/m3
- mass density ([2]; x1 = 0.3461): 1054.83 ± 0.41 kg/m3
- mass density ([2]; x1 = 0.3965): 1067.37 ± 0.42 kg/m3
- mass density ([2]; x1 = 0.4457): 1078.09 ± 0.45 kg/m3
- mass density ([2]; x1 = 0.5003): 1088.63 ± 0.49 kg/m3
- mass density ([2]; x1 = 0.5548): 1097.81 ± 0.54 kg/m3
- mass density ([2]; x1 = 0.6083): 1106.02 ± 0.59 kg/m3
- mass density ([2]; x1 = 0.7025): 1118.37 ± 0.7 kg/m3
- mass density ([2]; x1 = 0.7992): 1129 ± 0.84 kg/m3
- mass density ([2]; x1 = 0.8925): 1137.77 ± 0.98 kg/m3
- mass density ([2]; x1 = 1): 1146.7 ± 1.2 kg/m3
